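Cultured in 96-well plates, cells were exposed to test compound for 48 hours across five concentrations. GI50 is the concentration that inhibits growth by half.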 The source made the active and inactive calls. Rule as the data show it: active = GI50 up to about 1.1 µM and inactive = higher.
Tests used:
Assay in all cases: inhibition of tumour cell growth, NCI panel, 48 h
T47D = system: T47D
DMS-114 = system: DMS-114
DMS-273 = system: DMS-273
KM-20L2 = system: KM-20L2
LXFL 529 = system: LXFL 529
M19-MEL = system: M19-MEL
SNB-78 = system: SNB-78
HOP-18 = system: HOP-18

With `O=C1c2cccc3cc([N+](=O)[O-])cc(c23)C(=O)N1O` the GI50 (T47D) was 37.2 µM (inactive).

With `Cn1c(=O)c2nc(CCCCc3nc4ccccc4[nH]3)[nH]c2n(C)c1=O` the GI50 (T47D) was > 100 µM (inactive).

In the case of `Cc1cc(=O)n2nc(SCc3ccccc3)sc2n1`, the GI50 (T47D) is reported as 42.3 µM (inactive).

In the case of `CN(C)CCn1c(=O)c2ccc(NCCCN(C)CCCNc3ccc4c(=O)n(CCN(C)C)c(=O)n5c6ccc(O)cc6c(=O)c3c45)c3c(=O)c4cc(O)ccc4n(c1=O)c23`, the GI50 (T47D) is reported as 0.0624 µM (active).

In the case of `O=C1Nc2ccccc2Nc2nc3cccccc-3c21`, the GI50 (DMS-114) is reported as > 100 µM (inactive), the GI50 (DMS-273) is reported as > 100 µM (inactive) and the GI50 (KM-20L2) is reported as > 100 µM (inactive). The GI50 (LXFL 529) was > 100 µM (inactive), the GI50 (M19-MEL) was > 100 µM (inactive) and the GI50 (SNB-78) was > 100 µM (inactive).

For `Cc1cc(O)c2c(c1)C(C1c3cccc(O)c3C(=O)c3c(O)cc(C)cc31)c1cccc(O)c1C2=O` (configuration not stated), the GI50 (T47D) was 0.631 µM (active).

`O=C1C(O)=C(Cl)C(=O)c2c(O)ccc(O)c21` was tested, and the GI50 (T47D) was > 100 µM (inactive).

With `CN(C)/C=N/NC(=O)/C(C#N)=C/N(C)C` the GI50 (T47D) was > 100 µM (inactive).

In the case of `Cc1cnc2ccc(C)c([N+](=O)[O-])c2c1NCCCN(C)C`, the GI50 (DMS-114) is reported as 86.5 µM (inactive), the GI50 (DMS-273) is reported as > 100 µM (inactive) and the GI50 (KM-20L2) is reported as 91.6 µM (inactive). The GI50 (M19-MEL) was > 100 µM (inactive) and the GI50 (SNB-78) was > 100 µM (inactive).

For `CC(=O)O[C@H]1C(=O)[C@@]2(C)[C@H]([C@H](OC(=O)c3ccccc3)[C@]3(O)C[C@H](OC(=O)[C@H](O)[C@@H](NC(=O)c4ccccc4)c4cccc(N(C)C)c4)C(C)=C1C3(C)C)[C@]1(OC(C)=O)CO[C@@H]1C[C@@H]2O`, the GI50 (T47D) was 0.401 µM (active).

In the case of `O=c1c2ccccc2sc2cccc(NCCCN3CCN(CCCNc4cccc5sc6ccccc6c(=O)c45)CC3)c12`, the GI50 (T47D) is reported as > 100 µM (inactive).

With `CC1=NN(c2cccc(Cl)c2)C2(SCC(=O)N2c2nc3ccccc3s2)/C1=C\c1ccc(Cl)cc1` (configuration not stated) the GI50 (T47D) was 24.8 µM (inactive).

In the case of `Cn1/c(=N\N=C(\CNCCO)[C@@H](O)[C@@H]2OC(c3ccccc3)OC[C@H]2O)sc2ccccc21` (some centres not stated), the GI50 (T47D) is reported as 20.1 µM (inactive).

`O=c1[nH]nc(Cc2ccccc2)n1/N=C/c1c[nH]c2ccccc12` was tested, and the GI50 (T47D) was > 100 µM (inactive).

In the case of `CC(C)OC(=O)c1ccc(CCc2cc(O)c(Br)cc2O)cc1`, the GI50 (T47D) is reported as 22 µM (inactive).

In the case of `Cn1c2c(c3ccccc31)CCN1C(=O)CCC21` (configuration not stated), the GI50 (T47D) is reported as > 10 µM (inactive).

With `COc1ccc(OC)c(-c2cc(=O)c3c(OC)c(OC)c(OC)c(OC)c3o2)c1` the GI50 (T47D) was 2.13 µM (inactive).

`C=CCC1(O)c2cccc(O)c2C(=O)c2c(O)cccc21` was tested, and the GI50 (T47D) was 23.3 µM (inactive).

For `O=C(Nc1ccc2ncccc2c1)c1cc2c(cc1Cl)Sc1nccn1S2(=O)=O`, the GI50 (T47D) was 14.7 µM (inactive).

With `CC1(C)OCC(C2OC(=O)C(OCc3ccccc3)=C2OCc2ccccc2)O1` (configuration not stated) the GI50 (T47D) was 28.8 µM (inactive).

For `CC(C)c1cc(CN(C)C)c(O)c(C(C)(C)C)c1`, the GI50 (T47D) was 24.7 µM (inactive).

With `Fc1ccc(C2SCc3nc4ccccc4n32)cc1` (configuration not stated) the GI50 (DMS-114) was 39.5 µM (inactive), the GI50 (HOP-18) was < 0.01 µM (active) and the GI50 (LXFL 529) was 34.4 µM (inactive). For the same molecule, the GI50 (M19-MEL) was 41 µM (inactive) and the GI50 (SNB-78) was 13.8 µM (inactive).

In the case of `Sc1ccc2ccccc2c1CNCc1ccccc1`, the GI50 (T47D) is reported as 19.3 µM (inactive).

For `O=C(Nc1ccccc1)OCCN=c1c2ccccc2ccc2ccccc12`, the GI50 (T47D) was 13.1 µM (inactive).

With `COC(=O)C1=C(OC(=O)/C(=C/c2ccc(Cl)cc2Cl)c2ccc(Cl)cc2Cl)C(C(=O)OC)[C@@]2(O)[C@@H](C(=O)OC)[C@H](C)C[C@@H]1[C@@H]2C(=O)OC` (some centres not stated) the GI50 (T47D) was > 100 µM (inactive).

For `COc1ccc(OC)c(NC(=O)CCC/C(CC(=O)c2ccc(O)c(OC)c2)=N\Nc2nnc(C)n2N)c1`, the GI50 (DMS-114) was 95.7 µM (inactive), the GI50 (DMS-273) was > 100 µM (inactive) and the GI50 (HOP-18) was > 100 µM (inactive). For the same molecule, the GI50 (KM-20L2) was > 100 µM (inactive), the GI50 (LXFL 529) was > 100 µM (inactive) and the GI50 (M19-MEL) was > 100 µM (inactive).

With `Cc1cn(CCCCOC(=O)NC(CCCNC(=N)N)C(=O)O)c(=O)[nH]c1=O` (configuration not stated) the GI50 (T47D) was > 100 µM (inactive).

In the case of `CC#CC#C/C=C1/C=CC2(CCCCO2)O1` (configuration not stated), the GI50 (T47D) is reported as > 100 µM (inactive).

`COC(=O)c1c(C)cccc1C1CN=NC12Cc1cc(C)c(C)cc1C2=O` (configuration not stated) was tested, and the GI50 (T47D) was 40.6 µM (inactive).

With `Nc1ccc(C(=O)O)cc1` [AMINOBENZOIC ACID] the GI50 (T47D) was > 100 µM (inactive).

For `O=S(=O)(C1=CC(S(=O)(=O)c2ccccc2)COC1)c1ccccc1` (configuration not stated), the GI50 (DMS-114) was > 100 µM (inactive), the GI50 (DMS-273) was > 100 µM (inactive) and the GI50 (LXFL 529) was > 100 µM (inactive). For the same molecule, the GI50 (M19-MEL) was > 100 µM (inactive).

In the case of `CC(C)C12Cc3c(ccc4ccccc34)OC1(C)Oc1ccc3ccccc3c1C2` (configuration not stated), the GI50 (DMS-114) is reported as 25.6 µM (inactive), the GI50 (DMS-273) is reported as > 100 µM (inactive) and the GI50 (KM-20L2) is reported as > 100 µM (inactive). For the same molecule, the GI50 (LXFL 529) was > 100 µM (inactive) and the GI50 (SNB-78) was > 100 µM (inactive).

In the case of `CS(=O)(=O)OCCCSCCSCCCOS(C)(=O)=O`, the GI50 (T47D) is reported as > 100 µM (inactive).

For `CC(=O)OC1=C2CC[C@@H]3C(CC[C@@]4(C)C3CC[C@@H]4OC(C)=O)[C@@]2(C)CC(C#N)C1=O` (some centres not stated), the GI50 (DMS-114) was 17.8 µM (inactive), the GI50 (DMS-273) was 20.9 µM (inactive) and the GI50 (KM-20L2) was 27.7 µM (inactive). For the same molecule, the GI50 (LXFL 529) was 30 µM (inactive) and the GI50 (SNB-78) was 26.8 µM (inactive).

`O=C1CSC(/C=C/c2ccccc2)N1c1ccc(-n2c(-c3ccccc3)nc3ccccc3c2=O)cc1` (configuration not stated) was tested, and the GI50 (T47D) was 17 µM (inactive).

For `COc1ccc(/C=C(\C#N)c2nc3ccccc3c(=O)[nH]2)cc1`, the GI50 (T47D) was 20.6 µM (inactive).

`COc1cc(/C=[N+](\[O-])c2ccccc2Cl)ccc1OC(=S)S` was tested, and the GI50 (T47D) was 18.8 µM (inactive).

`COc1ccc(NC(=O)CC(=O)NN2C(=O)/C(=C/c3ccc(N(CCC#N)CCC#N)cc3C)N=C2/C=C\c2ccccc2)cc1` was tested, and the GI50 (HOP-18) was 18.5 µM (inactive), the GI50 (KM-20L2) was > 100 µM (inactive) and the GI50 (LXFL 529) was > 100 µM (inactive). The GI50 (M19-MEL) was > 100 µM (inactive) and the GI50 (SNB-78) was > 100 µM (inactive).

For `CN(C)C1(N(C)C)Oc2c(c(=O)n(C)c(=O)n2C)C(c2ccccc2Br)C1(F)F` (configuration not stated), the GI50 (T47D) was > 100 µM (inactive).

With `O=C1C(C(O)(C(F)(F)Cl)C(F)(F)Cl)CCC1C(O)(C(F)(F)Cl)C(F)(F)Cl` (configuration not stated) the GI50 (T47D) was 4.44 µM (inactive).

With `O=C(CCl)Nc1ccc(C(=O)N/N=C/c2ccc(Cl)cc2)cc1` the GI50 (DMS-114) was 1.45 µM (inactive), the GI50 (DMS-273) was 2 µM (inactive) and the GI50 (KM-20L2) was 11.9 µM (inactive). The GI50 (LXFL 529) was 1.71 µM (inactive), the GI50 (M19-MEL) was 12.8 µM (inactive) and the GI50 (SNB-78) was 3.52 µM (inactive). The GI50 (T47D) was 2.51 µM (inactive).

For `Cc1cn(C(=O)NC23CC4CC(CC(C4)C2)C3)c(=O)[nH]c1=O`, the GI50 (T47D) was 31.3 µM (inactive).

With `C=CC[C@H](C)CCC(=O)N1[C@H]2CC3CC[C@@]2(CS1(=O)=O)C3(C)C` the GI50 (T47D) was 42.6 µM (inactive).

In the case of `CCSc1s/c(=N/c2ccc(/N=c3\sc(C)c(SC)s3)cc2)sc1-c1ccc(C)cc1`, the GI50 (T47D) is reported as > 100 µM (inactive).

In the case of `O=CN1CCN(C(=O)c2cc(Cl)cc(Cl)c2)C1=S`, the GI50 (T47D) is reported as 10.7 µM (inactive).

With `N#CC(C#N)=CNCCN1CCN(C=C(C#N)C#N)CC1` the GI50 (T47D) was > 100 µM (inactive).

For `CCC[C@H](C)[C@H]1NC(=O)[C@@H](NC(=O)[C@@H](CC(C)C)N(C)C(=O)C2CCCN2C(=O)[C@H](C)O)[C@@H](C)OC(=O)[C@H](CC(C)C)N(C)C(=O)[C@@H]2CCCN2C(=O)[C@H](CC(C)C)NC(=O)[C@@H](C)C(=O)[C@H](C(C)C)OC(=O)C[C@@H]1O` (some centres not stated), the GI50 (T47D) was < 0.0025 µM (active).

With `Nc1cc(F)ccc1CC(=O)O` the GI50 (T47D) was > 100 µM (inactive).

`C=C1C2CC3CCC2C(OC(=O)c2ccccc2C(=O)O)C13` (configuration not stated) was tested, and the GI50 (T47D) was > 100 µM (inactive).

For `COc1ccc(Oc2cnn(C(Br)(Br)C(C)=O)c(=O)c2Br)cc1`, the GI50 (T47D) was 18.5 µM (inactive).

In the case of `CCSc1nc2sc(C)c(C)c2c(=O)n1-c1ccc(C(=O)O)cc1`, the GI50 (DMS-114) is reported as 76.9 µM (inactive), the GI50 (HOP-18) is reported as 10.2 µM (inactive) and the GI50 (KM-20L2) is reported as > 100 µM (inactive). For the same molecule, the GI50 (M19-MEL) was 60 µM (inactive) and the GI50 (SNB-78) was 94 µM (inactive).

For `NC(Cc1c[nH]c2ccc([N+](=O)[O-])cc12)C(=O)O` (configuration not stated), the GI50 (T47D) was > 100 µM (inactive).

For `Cc1ccc2c(c1C)CC1(Cc3ccc(C)c(C)c3C1=O)C2=O` (configuration not stated), the GI50 (T47D) was > 100 µM (inactive).

For `OC1CC2CCCN(CCc3c1[nH]c1ccccc31)C2` (configuration not stated), the GI50 (T47D) was > 100 µM (inactive).

Source: ChEMBL document CHEMBL1201862, “PubChem BioAssay data set” (2004)
